Measured values published in ChEMBL document CHEMBL4373746, “Structural attributes influencing unbound tissue distribution” (Eur J Med Chem, 2020).
Values belong to the compound of their own block, whether it stands above or below them.

Columns and labels:
[1] = Unbound tissue partition coefficient, ratio of drug level in skeletal muscle to plasma in Wistar Han rat at 1 to 2 mg/kg, iv infused for 10 to 20 hrs by LC-MS/MS analysis; settings: skeletal muscle/plasma
[2] = Drug concentration in total skeletal muscle in Wistar Han rat at 1 to 2 mg/kg, iv infused for 10 to 20 hrs by LC-MS/MS analysis; settings: in vivo
[3] = Total plasma concentration in Wistar Han rat at 1 to 2 mg/kg, iv infused for 10 to 20 hrs by LC-MS/MS analysis; settings: in vivo
[4] = Drug concentration in total white adipose tissue in Wistar Han rat at 1 to 2 mg/kg, iv infused for 10 to 20 hrs by LC-MS/MS analysis; settings: in vivo
[5] = Unbound tissue partition coefficient, ratio of drug level in brain to plasma in Wistar Han rat at 1 to 2 mg/kg, iv infused for 10 to 20 hrs by LC-MS/MS analysis; settings: brain/plasma
[6] = Drug concentration in total liver in Wistar Han rat at 1 to 2 mg/kg, iv infused for 10 to 20 hrs by LC-MS/MS analysis; settings: in vivo
[7] = Unbound tissue partition coefficient, ratio of drug level in heart to plasma in Wistar Han rat at 1 to 2 mg/kg, iv infused for 10 to 20 hrs by LC-MS/MS analysis; settings: heart/plasma
[8] = Drug concentration in total heart in Wistar Han rat at 1 to 2 mg/kg, iv infused for 10 to 20 hrs by LC-MS/MS analysis; settings: in vivo
[9] = Unbound tissue partition coefficient, ratio of drug level in liver to plasma in Wistar Han rat at 1 to 2 mg/kg, iv infused for 10 to 20 hrs by LC-MS/MS analysis; settings: liver/plasma
[10] = Drug concentration in total brain in Wistar Han rat at 1 to 2 mg/kg, iv infused for 10 to 20 hrs by LC-MS/MS analysis; settings: in vivo
[11] = Unbound tissue partition coefficient, ratio of drug level in adipose to plasma in Wistar Han rat at 1 to 2 mg/kg, iv infused for 10 to 20 hrs by LC-MS/MS analysis; settings: adipose/plasma
[12] = Fraction unbound in Wistar Han rat plasma at 2 uM incubated for 6 hrs by equilibrium dialysis method
[13] = Fraction unbound in Wistar Han rat white adipose tissue at 2 uM incubated for 6 hrs by equilibrium dialysis method
[14] = Apparent permeability of the compound across dog RRCK cells by MDCK-LE assay
[15] = Fraction unbound in Wistar Han rat liver at 2 uM incubated for 6 hrs by equilibrium dialysis method
[16] = Fraction unbound in Wistar Han rat brain at 2 uM incubated for 6 hrs by equilibrium dialysis method
[17] = Fraction unbound in Wistar Han rat heart at 2 uM incubated for 6 hrs by equilibrium dialysis method
[18] = Fraction unbound in Wistar Han rat skeletal muscle at 2 uM incubated for 6 hrs by equilibrium dialysis method

Structure (SMILES): Cc1nc([C@@H]2CCOC2)c2c(N3CCc4c(c(C5CC5)nn4C)C3)ncnn12
Kp uu [1]: 1.5
Ct [2]: 75 ng/mL
fraction unbound at 6 h, 2 µM [12]: 0.178
Cp [3]: 66 ng/mL
Ct [4]: 270 ng/mL
Kp uu [5]: 0.46
fraction unbound at 6 h, 2 µM [13]: 0.101
Papp [14]: 30 ×10⁻⁶ cm/s
fraction unbound at 6 h, 2 µM [15]: 0.195
fraction unbound at 6 h, 2 µM [16]: 0.103
Ct [6]: 380 ng/mL
Kp uu [7]: 1.7
Ct [8]: 110 ng/mL
Kp uu [9]: 6.2
Ct [10]: 52 ng/mL
Kp uu [11]: 2.3
fraction unbound at 6 h, 2 µM [17]: 0.171
fraction unbound at 6 h, 2 µM [18]: 0.23

Structure (SMILES): Nc1noc2ccc(-c3cc(Cl)ccc3Oc3cc(F)c(S(=O)(=O)Nc4cscn4)cc3F)cc12
Kp uu [1]: 0.54
Ct [2]: 18 ng/mL
fraction unbound at 6 h, 2 µM [12]: 0.00155
Cp [3]: 36 ng/mL
Ct [4]: 11 ng/mL
Kp uu [5]: 0.0018
fraction unbound at 6 h, 2 µM [13]: 0.0123
Papp [14]: 3.8 ×10⁻⁶ cm/s
fraction unbound at 6 h, 2 µM [15]: 0.00176
fraction unbound at 6 h, 2 µM [16]: 0.00141
Ct [6]: 1.4 ng/mL
Kp uu [7]: 0.9
Ct [8]: 54 ng/mL
Kp uu [9]: 0.033
Ct [10]: 0.38 ng/mL
Kp uu [11]: 2.4
fraction unbound at 6 h, 2 µM [17]: 0.000968
fraction unbound at 6 h, 2 µM [18]: 0.00165

Structure (SMILES): Cn1cnc(-c2ccc(O[C@H]3CCN(C(=O)Cc4ccc(OC(F)(F)F)cc4)C[C@@H]3F)c(C(N)=O)c2)c1
Kp uu [1]: 0.87
Ct [2]: 69 ng/mL
fraction unbound at 6 h, 2 µM [12]: 0.0645
Cp [3]: 76 ng/mL
Ct [4]: 6 ng/mL
Kp uu [5]: 0.0018
fraction unbound at 6 h, 2 µM [13]: 0.179
Papp [14]: 14 ×10⁻⁶ cm/s
fraction unbound at 6 h, 2 µM [15]: 0.0393
fraction unbound at 6 h, 2 µM [16]: 0.0216
Ct [6]: 540 ng/mL
Kp uu [7]: 0.8
Ct [8]: 100 ng/mL
Kp uu [9]: 4.4
Ct [10]: 0.38 ng/mL
Kp uu [11]: 0.21
fraction unbound at 6 h, 2 µM [17]: 0.0378
fraction unbound at 6 h, 2 µM [18]: 0.0611

Structure (SMILES): CC(=O)N1CCN(c2ccc(OCC3COC(Cn4ccnc4)(c4ccc(Cl)cc4Cl)O3)cc2)CC1 (configuration not stated) [KETOCONAZOLE]
Papp [14]: 4.2 ×10⁻⁶ cm/s

The next lines start with the values.

Kp uu [1]: 0.02
Ct [2]: 0.9 ng/mL
Cp [3]: 110 ng/mL
Ct [4]: 0.77 ng/mL
Kp uu [5]: 0.0018
Ct [6]: 300 ng/mL
Kp uu [7]: 0.75
Ct [8]: 20 ng/mL
Kp uu [9]: 7.2
Ct [10]: 0.38 ng/mL
Kp uu [11]: 0.024
Structure (SMILES): O=C(O)C(=O)Nc1ccc(NC(=O)[C@H](CC2CCCC2)n2cnc(C(F)(F)F)c2)nc1

Kp uu [1]: 0.41
Ct [2]: 38 ng/mL
fraction unbound at 6 h, 2 µM [12]: 0.817
Cp [3]: 32 ng/mL
Ct [4]: 0.86 ng/mL
Kp uu [5]: 0.048
fraction unbound at 6 h, 2 µM [13]: 1
Papp [14]: 1.7 ×10⁻⁶ cm/s
fraction unbound at 6 h, 2 µM [15]: 0.696
fraction unbound at 6 h, 2 µM [16]: 0.347
Ct [6]: 70 ng/mL
Kp uu [7]: 1.1
Ct [8]: 45 ng/mL
Kp uu [9]: 1.9
Ct [10]: 3.7 ng/mL
Kp uu [11]: 0.027
fraction unbound at 6 h, 2 µM [17]: 0.667
fraction unbound at 6 h, 2 µM [18]: 0.276
Structure (SMILES): O=c1[nH]c(=S)n(CCO)c2cc[nH]c12

Kp uu [1]: 0.21
Ct [2]: 21 ng/mL
fraction unbound at 6 h, 2 µM [12]: 0.214
Cp [3]: 83 ng/mL
Ct [4]: 5.7 ng/mL
Kp uu [5]: 0.0037
fraction unbound at 6 h, 2 µM [13]: 0.309
Papp [14]: 1.4 ×10⁻⁶ cm/s
fraction unbound at 6 h, 2 µM [15]: 0.205
fraction unbound at 6 h, 2 µM [16]: 0.183
Ct [6]: 4200 ng/mL
Kp uu [7]: 0.77
Ct [8]: 44 ng/mL
Kp uu [9]: 49
Ct [10]: 0.42 ng/mL
Kp uu [11]: 0.1
fraction unbound at 6 h, 2 µM [17]: 0.311
fraction unbound at 6 h, 2 µM [18]: 0.174
Structure (SMILES): CN(C)C(=O)c1cc(CC(=O)O)ccc1NC(=O)c1ccccc1-c1ccc(C(F)(F)F)cc1
